Read-outs that look alike come from different tables or passages of the source.

IC50 data for 18 compounds are collected here from US10028938B2, “Antiviral agents and uses thereof” (Griffith University, priority 2014, dated 2018).

The target in one experiment is hPIV-1 NI (Human parainfluenza 1 virus, UniProt P16071). The experiment is described as follows: biochemical. How it is done:
IC50 values for a number of compounds of the first aspect were determined by standard assay methods previously described in Guillon, P et al, Nature Communications (2014).

Another experiment concerns the target hPIV-3 HN (Human parainfluenza 3 virus, UniProt P08492). In kind it is biochemical, hPIV-3 (strain C-243).
Setting [1] is: Table 5, read-out: hPIV-3 NI (IC50 values).

hPIV-3 HN, sequence (P08492 whole entry): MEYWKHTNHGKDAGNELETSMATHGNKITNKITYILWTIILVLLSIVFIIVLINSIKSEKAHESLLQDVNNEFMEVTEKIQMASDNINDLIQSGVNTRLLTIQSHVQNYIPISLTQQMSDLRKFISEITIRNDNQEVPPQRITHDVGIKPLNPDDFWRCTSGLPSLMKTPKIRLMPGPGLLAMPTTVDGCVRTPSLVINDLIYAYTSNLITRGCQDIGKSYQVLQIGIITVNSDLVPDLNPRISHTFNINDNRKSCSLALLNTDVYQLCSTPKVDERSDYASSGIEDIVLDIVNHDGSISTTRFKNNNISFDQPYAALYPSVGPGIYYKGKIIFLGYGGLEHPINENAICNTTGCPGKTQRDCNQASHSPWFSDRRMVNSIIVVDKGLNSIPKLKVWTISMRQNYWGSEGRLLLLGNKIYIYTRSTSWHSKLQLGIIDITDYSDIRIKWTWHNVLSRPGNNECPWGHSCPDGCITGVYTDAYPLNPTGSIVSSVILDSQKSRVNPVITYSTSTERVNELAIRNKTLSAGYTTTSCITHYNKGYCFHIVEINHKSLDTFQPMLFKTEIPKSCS
hPIV-1 NI, sequence (P16071 whole entry): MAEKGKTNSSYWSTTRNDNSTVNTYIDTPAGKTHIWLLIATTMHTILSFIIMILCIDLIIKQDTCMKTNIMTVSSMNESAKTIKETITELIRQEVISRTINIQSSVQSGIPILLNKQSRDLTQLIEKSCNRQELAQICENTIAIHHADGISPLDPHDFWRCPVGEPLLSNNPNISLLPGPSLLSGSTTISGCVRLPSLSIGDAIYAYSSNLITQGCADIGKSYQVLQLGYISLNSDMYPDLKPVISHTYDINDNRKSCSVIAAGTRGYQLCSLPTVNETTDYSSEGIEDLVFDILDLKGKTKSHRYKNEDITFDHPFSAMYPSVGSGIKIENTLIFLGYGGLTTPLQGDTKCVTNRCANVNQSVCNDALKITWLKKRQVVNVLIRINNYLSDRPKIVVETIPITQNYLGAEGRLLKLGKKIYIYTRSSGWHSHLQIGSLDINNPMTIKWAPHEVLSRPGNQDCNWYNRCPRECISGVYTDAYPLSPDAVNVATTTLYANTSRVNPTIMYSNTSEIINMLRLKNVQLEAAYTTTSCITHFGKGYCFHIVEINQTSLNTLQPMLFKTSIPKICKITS

By IC50 is commonly meant the concentration at which inhibition is half-maximal. For the compound `CC(=O)N[C@H]1[C@H]([C@H](O)[C@H](O)CO)OC(C(=O)O)=C[C@@H]1n1cc(CC(C)C)nn1` [IE832-8, Sodium 5-acetamido-2,6-anhydro-3,4,5-trideoxy-4-(4-isobutyl-[1,2,3,]triazol-1-yl)-D-glycero-D-galacto-non-2-enonate], the concentration for half-maximal inhibition (IC50) on hPIV-1 NI worked out at 301 µM; at hPIV-3 HN (setting [1]), 54.4 µM.
As to `CC(=O)N[C@H]1[C@H]([C@H](O)[C@H](O)CO)OC(C(=O)O)=C[C@@H]1n1cc(-c2ccc(CO)cc2)nn1` [IE832-12, Sodium 5-acetamido-2,6-anhydro-3,4,5-trideoxy-4-(4-(4-hydroxymethylphenyl)-[1,2,3,]triazol-1-yl)-D-glycero-D-galacto-non-2-enonate], the results for the IC50 against hPIV-1 NI and at hPIV-3 HN (setting [1]) were 215 µM and 51.9 µM, respectively.
Taken in the same sequence, the figures for `COc1cccc(-c2cn([C@H]3C=C(C(=O)O)O[C@@H]([C@H](O)[C@H](O)CO)[C@@H]3NC(C)=O)nn2)c1` [IE832-20, Sodium 5-acetamido-2,6-anhydro-3,4,5-trideoxy-4-(4-(3-methoxyphenyl)-[1,2,3,]triazol-1-yl)-D-glycero-D-galacto-non-2-enonate] were 193 µM and 6.28 µM.
Turning to `CCCc1cn([C@H]2C=C(C(=O)O)O[C@@H]([C@H](O)[C@H](O)CO)[C@@H]2NC(C)=O)nn1` [IE832-26, Sodium 5-acetamido-2,6-anhydro-3,4,5-trideoxy-4-(4-propyl-[1,2,3,]triazol-1-yl)-D-glycero-D-galacto-non-2-enonate], the IC50 was 95.5 µM on hPIV-1 NI and 67.7 µM on hPIV-3 HN (setting [1]).
As for `CC(=O)N[C@H]1[C@H]([C@H](O)[C@H](O)CO)OC(C(=O)O)=C[C@@H]1n1cc(-c2cccnc2)nn1` [IE832-27, Sodium 5-acetamido-2,6-anhydro-3,4,5-trideoxy-4-(4-(pyridin-3-yl)-[1,2,3,]triazol-1-yl)-D-glycero-D-galacto-non-2-enonate], the IC50 at hPIV-1 NI stood at 302 µM; at hPIV-3 HN (setting [1]) it was 106 µM.
Consider `COc1ccc(-c2cn([C@H]3C=C(C(=O)O)O[C@@H]([C@H](O)[C@H](O)CO)[C@@H]3NC(C)=O)nn2)cc1` [IE832-31, Sodium 5-acetamido-2,6-anhydro-3,4,5-trideoxy-4-(4-(4-methoxyphenyl)-[1,2,3,]triazol-1-yl)-D-glycero-D-galacto-non-2-enonate], for which the IC50 against hPIV-1 NI turned out to be 303 µM; at hPIV-3 HN (setting [1]), 22.9 µM.
Regarding `COc1ccccc1-c1cn([C@H]2C=C(C(=O)O)O[C@@H]([C@H](O)[C@H](O)CO)[C@@H]2NC(C)=O)nn1` [IE832-37, Sodium 5-acetamido-2,6-anhydro-3,4,5-trideoxy-4-(4-(2-methoxyphenyl)-[1,2,3,]triazol-1-yl)-D-glycero-D-galacto-non-2-enonate], the IC50 against hPIV-1 NI came to 201 µM; on hPIV-3 HN (setting [1]), 2.4 µM.
In the case of `CC(=O)N[C@H]1[C@H]([C@H](O)[C@H](O)CO)OC(C(=O)O)=C[C@@H]1n1cnnn1` [IE832-98, Sodium 5-acetamido-2,6-anhydro-3,4,5-trideoxy-4-(1H-tetrazol-1-yl)-D-glycero-D-galacto-non-2-enonate], the results for the IC50 against hPIV-1 NI and on hPIV-3 HN (setting [1]) were 7.44 µM and 27.4 µM, respectively.
With `COc1ccccc1-c1cn([C@H]2C=C(C(=O)O)O[C@@H]([C@H](O)[C@H](O)CO)[C@@H]2NC(=O)C(C)C)nn1` [IE889-34, Sodium 2,6-anhydro-3,4,5-trideoxy-5-isobutyramido-4-(4-(2-methoxyphenyl)-[1,2,3,]triazol-1-yl)-D-glycero-D-galacto-non-2-enonate], the IC50 against hPIV-1 NI came out at 30.3 µM; at hPIV-3 HN (setting [1]), 3.23 µM.
As to `CC(C)C(=O)N[C@H]1[C@H]([C@H](O)[C@H](O)CO)OC(C(=O)O)=C[C@@H]1n1cnnn1` [IE889-42, Sodium 2,6-anhydro-3,4,5-trideoxy-5-isobutyramido-4-(H-tetrazol-1-yl)-D-glycero-D-galacto-non-2-enonate], the values for the IC50 at hPIV-1 NI and on hPIV-3 HN (setting [1]) were 0.159 µM and 5.11 µM, respectively.
`CC(=O)N[C@H]1[C@H]([C@H](O)[C@H](O)CO)OC(C(=O)O)=C[C@@H]1n1cc2ccccc2c1C#N` [IE889-80, Sodium 5-acetamido-2,6-anhydro-4-(1-cyano-2H-isoindol-2-yl)-3,4,5-trideoxy-D-glycero-D-galacto-non-2-enonate]: the IC50 against hPIV-1 NI came out at 16.9 µM; on hPIV-3 HN (setting [1]) it was 2.68 µM.
On the same counts, the results for `CC(C)C(=O)N[C@H]1[C@H]([C@H](O)[C@H](O)CO)OC(C(=O)O)=C[C@@H]1n1cc2ccccc2c1C#N` [IE889-99, Sodium 2,6-anhydro-4-(1-cyano-2H-isoindol-2-yl)-3,4,5-trideoxy-5-isobutyramido-D-glycero-D-galacto-non-2-enonate] are 6.22 µM and 0.599 µM.
As to `CC(C)Cc1cn([C@H]2C=C(C(=O)O)O[C@@H]([C@H](O)[C@H](O)CO)[C@@H]2NC(=O)C(C)C)nn1` [IE927-67, Sodium 2,6-anhydro-3,4,5-trideoxy-4-(4-isobutyl-[1,2,3,]triazol-1-yl)-5-isobutyramido-D-glycero-D-galacto-non-2-enonate], the results for the IC50 against hPIV-1 NI and on hPIV-3 HN (setting [1]) were 47.7 µM and 114 µM, respectively.
Regarding `N#Cc1c2ccccc2cn1[C@H]1C=C(C(=O)O)O[C@@H]([C@H](O)[C@H](O)CO)[C@@H]1NC(=O)C(F)(F)F` [IE927-99, Sodium 2,6-anhydro-4-(1-cyano-2H-isoindol-2-yl)-3,4,5-trideoxy-5-(2,2,2-trifluoroacetamido)-D-glycero-D-galacto-non-2-enonate], the concentration for half-maximal inhibition (IC50) is 3.09 µM against hPIV-1 NI; 0.268 µM at hPIV-3 HN (setting [1]); 0.27 µM on hPIV-3 HN (text b135, read-out: IC50 values for hPIV-3 HN).
Take `CC(=O)N[C@H]1[C@H]([C@H](O)C(O)CO)OC(C(=O)O)=C[C@@H]1n1nncc1-c1ccccc1` (stereo partly drawn) [IE1172-45, Sodium 5-acetamido-2,6-anhydro-3,4,5-trideoxy-4-(5-phenyl-[1,2,3,]triazol-1-yl)-D-glycero-D-galacto-non-2-enonate]: the results for the 50% inhibitory concentration (IC50) at hPIV-1 NI and at hPIV-3 HN (setting [1]) were greater than 1000 µM and 315 µM, respectively.
With `CC(=O)N[C@H]1[C@H]([C@H](O)C(O)CO)OC(C(=O)O)=C[C@@H]1n1cc(-c2ccccc2Cl)nn1` (stereo partly drawn) [IE1172-78, Sodium 5-acetamido-2,6-anhydro-4-(4-(2-chlorophenyl)-[1,2,3,]triazol-1-yl)-3,4,5-trideoxy-D-glycero-D-galacto-non-2-enonate], the IC50 came to 75.2 µM against hPIV-1 NI and 2.47 µM at hPIV-3 HN (setting [1]).
On to `CC(=O)N[C@H]1[C@H]([C@H](O)C(O)CO)OC(C(=O)O)=C[C@@H]1n1cc(-c2ccccc2C)nn1` (stereo partly drawn) [IE1172-82, Sodium 5-acetamido-2,6-anhydro-3,4,5-trideoxy-4-(4-(2-methylphenyl)-[1,2,3,]triazol-1-yl)-D-glycero-D-galacto-non-2-enonate], for which the IC50 against hPIV-1 NI is 57.2 µM; on hPIV-3 HN (setting [1]), 3.95 µM.
Turning to `CC(=O)N[C@H]1[C@H]([C@H](O)C(O)CO)OC(C(=O)O)=C[C@@H]1n1cc(-c2ccccc2C(F)(F)F)nn1` (stereo partly drawn) [IE1172-83, Sodium 5-acetamido-2,6-anhydro-3,4,5-trideoxy-4-(4-(2-(trifluoromethyl)phenyl)-[1,2,3,]triazol-1-yl)-D-glycero-D-galacto-non-2-enonate], the IC50 against hPIV-1 NI was determined as 73.6 µM; on hPIV-3 HN (setting [1]) it was 5.61 µM.
